Data taken from patent US7259140B2, “Heparin-binding peptides and uses thereof” (Thomas Jefferson University, priority 2003, dated 2007).
Bridge positions count the residues as written; N and C are the ends. Peptide text beside a SMILES is read from it.

Columns and labels:
Assay type in all cases: biochemical, human
[1] = tested on: anti-Factor Xa Activity of Unfractionated Heparin; assay: Anti-Factor Xa assay: neutralization of unfractionated heparin in citrate or plasma in vitro; settings: UFH 0.7 U/ml
Method: The ability of peptides such as (ARKKAAKA)3VLVLVLVL (SEQ ID NO:5) to neutralize the anti-Factor Xa activity of UFH and LMWH in vitro was tested using the Stachrom Heparin kit (Diagnostica Stago), a standard hematology laboratory assay used to measure the anti-Factor Xa activity of heparin. The assay was performed using the low molecular weight heparin enoxaparin sodium (Lovenox®, Aventis Pharmaceuticals, Inc.), unfractionated heparin (UFH), or the non-heparin glycosaminoglycan danaparoid sodium (Orgaran®, Organon Inc., West Orange, N.J.) in 0.32% citrate or in plasma anticoagulated with 0.32% citrate. Enoxaparin is commonly used clinically as a low molecular weight heparin (LMWH). Danaparoid is commonly used clinically as a non-heparin glycosaminoglycan anticoagulant. Currently, the only FDA approved drug to target UFH is protamine, which is not effective in vivo against LMWH or a non-heparin glycosaminoglycan such as danaparoid. Buffer and ATIII are added to form the heparin/ATIII complex, peptide is added, then Factor Xa, reporter dye substrate for Factor Xa activity, and stop solution, and the dye concentration is read at 405 nm. The absorbance of the dye increases with increasing Factor Xa activity, and thus is inversely proportional to the heparin (anti-Factor Xa activity) concentration. Peptides were tested in plasma obtained from three volunteers (A, B, and C). Platelet function inhibitors PG12 and theophylline were added to the blood immediately upon collection. […]

[2] = tested on: Lovenox ® Activity in Blood from Patients Treated with Lovenox ®; assay: Neutralizing Lovenox activity in blood from patients treated with Lovenox (anti-Factor Xa assay); settings: Peptide 12 μg/ml
Method: Blood was obtained from volunteers who were being treated with Lovenox® for their medical conditions after obtaining signatures on informed consent forms as approved by the Institutional Review Board. The assays to test neutralization of Lovendx® were performed as described for Table 2. A dose response from 1-60 μg/ml was evaluated as in Table 2.
The dose response pattern for the effective peptides was similar to the dose response in control plasma to which Lovenox® had been added. Each data point represents the mean and standard deviation of triplicate analyses on the same sample of blood from each patient.

[3] = tested on: anti-Factor Xa Activity of the Low Molecular Weight Heparin Lovenox ®; assay: Anti-Factor Xa assay (Stachrom Heparin kit): neutralization of Lovenox in citrate or plasma in vitro; settings: for Lovenox ® Neutralized: Lovenox 0.7 U/ml
Method: The ability of peptides such as (ARKKAAKA)3VLVLVLVL (SEQ ID NO:5) to neutralize the anti-Factor Xa activity of UFH and LMWH in vitro was tested using the Stachrom Heparin kit (Diagnostica Stago), a standard hematology laboratory assay used to measure the anti-Factor Xa activity of heparin. The assay was performed using the low molecular weight heparin enoxaparin sodium (Lovenox®, Aventis Pharmaceuticals, Inc.), unfractionated heparin (UFH), or the non-heparin glycosaminoglycan danaparoid sodium (Orgaran®, Organon Inc., West Orange, N.J.) in 0.32% citrate or in plasma anticoagulated with 0.32% citrate. Enoxaparin is commonly used clinically as a low molecular weight heparin (LMWH). Danaparoid is commonly used clinically as a non-heparin glycosaminoglycan anticoagulant. Currently, the only FDA approved drug to target UFH is protamine, which is not effective in vivo against LMWH or a non-heparin glycosaminoglycan such as danaparoid. Buffer and ATIII are added to form the heparin/ATIII complex, peptide is added, then Factor Xa, reporter dye substrate for Factor Xa activity, and stop solution, and the dye concentration is read at 405 nm. The absorbance of the dye increases with increasing Factor Xa activity, and thus is inversely proportional to the heparin (anti-Factor Xa activity) concentration. Peptides were tested in plasma obtained from three volunteers (A, B, and C). Platelet function inhibitors PG12 and theophylline were added to the blood immediately upon collection.
Results. […] (ARKKAAKA)3VLVLVLVL (SEQ ID NO:5) and VLVL(ARKKAAKA)3ARKKCAKA (SEQ ID NO:38) were able to neutralize about 0.4 U/ml anti-Factor Xa activity of LMWH at a concentration of 12 μg/ml, which would be an effective dose for patients. (AKKARA)6 (SEQ ID […]), (ARKKAAKA)4 (SEQ ID NO:31) and (ARKKAAKA)3ARKKCAKA […] 0.3-0.35 U/ml. In contrast, 12 μg protamine only neutralized about 0.25 U/ml of LMWH under these conditions.

Q: With `C[C@@H]1NC(=O)[C@H](C)NC(=O)[C@H](CCCCN)NC(=O)[C@H](CCCCN)NC(=O)[C@H](CCCNC(=N)N)NC(=O)[C@H](C)NC(=O)[C@H](C)NC(=O)[C@H](CCCCN)NC(=O)[C@H](C)NC(=O)[C@H](C)NC(=O)[C@H](CCCCN)NC(=O)[C@H](CCCCN)NC(=O)[C@H](CCCNC(=N)N)NC(=O)[C@H](C)NC(=O)[C@@H](N)CSSC[C@@H](C(=O)O)NC(=O)[C@H](C)NC(=O)[C@H](CCCCN)NC(=O)[C@H](C)NC(=O)[C@H](C)NC(=O)[C@H](CCCCN)NC(=O)[C@H](CCCCN)NC(=O)[C@H](CCCNC(=N)N)NC(=O)[C@H](C)NC(=O)[C@H](C)NC(=O)[C@H](CCCCN)NC(=O)[C@H](C)NC(=O)[C@H](C)NC(=O)[C@H](CCCCN)NC(=O)[C@H](CCCCN)NC(=O)[C@H](CCCNC(=N)N)NC(=O)[C@H](C)NC(=O)[C@H](C)NC(=O)[C@H](CCCCN)NC1=O` [C(ARKKAAKA)4C, cyclized C(ARKKAAKA)4C] (H-CARKKAAKAARKKAAKAARKKAAKAARKKAAKAC-OH; disulfide 1-34) as the compound, how does the “Unfractionated Heparin Neutralized” value ([1]; 1 μg/ml Peptide, A Plasma) read?
A: The value was 0.157 ± 0.032 U/ml.

Q: What about the “Unfractionated Heparin Neutralized” value ([1]; 1 μg/ml Peptide, B Plasma) of the same compound?
A: The value was 0.194 ± 0.066 U/ml.

Q: And the “Unfractionated Heparin Neutralized” value ([1]; 1 μg/ml Peptide, C Plasma)?
A: Its value is 0.078 ± 0.027 U/ml.

Q: What about the “Unfractionated Heparin Neutralized” value ([1]; 1 μg/ml Peptide, Citrate) of the same compound?
A: Its value is 0.131 ± 0.070 U/ml.

Q: And the “Unfractionated Heparin Neutralized” value ([1]; 6 μg/ml Peptide, A Plasma)?
A: The value was 0.442 ± 0.031 U/ml.

Q: And the “Unfractionated Heparin Neutralized” value ([1]; 6 μg/ml Peptide, B Plasma)?
A: The value was 0.426 ± 0.064 U/ml.

Q: And the “Unfractionated Heparin Neutralized” value ([1]; 6 μg/ml Peptide, C Plasma)?
A: The value was 0.447 ± 0.054 U/ml.

Q: What about the “Unfractionated Heparin Neutralized” value ([1]; 6 μg/ml Peptide, Citrate) of the same compound?
A: The value was 0.590 ± 0.024 U/ml.

Q: What about the “Unfractionated Heparin Neutralized” value ([1]; 12 μg/ml Peptide, A Plasma) of the same compound?
A: The value was 0.579 ± 0.128 U/ml.

Q: And the “Unfractionated Heparin Neutralized” value ([1]; 12 μg/ml Peptide, B Plasma)?
A: Its value is 0.552 ± 0.056 U/ml.

Q: What about the “Unfractionated Heparin Neutralized” value ([1]; 12 μg/ml Peptide, C Plasma) of the same compound?
A: The value was 0.583 ± 0.066 U/ml.

Q: And the “Unfractionated Heparin Neutralized” value ([1]; 12 μg/ml Peptide, Citrate)?
A: Its value is 0.560 ± 0.012 U/ml.

Q: What about the “Unfractionated Heparin Neutralized” value ([1]; 60 μg/ml Peptide, A Plasma) of the same compound?
A: Its value is 0.605 ± 0.088 U/ml.

Q: And the “Unfractionated Heparin Neutralized” value ([1]; 60 μg/ml Peptide, B Plasma)?
A: Its value is 0.566 ± 0.036 U/ml.

Q: And the “Unfractionated Heparin Neutralized” value ([1]; 60 μg/ml Peptide, C Plasma)?
A: Its value is 0.572 ± 0.076 U/ml.

Q: And the “Unfractionated Heparin Neutralized” value ([1]; 60 μg/ml Peptide, Citrate)?
A: The value was 0.560 ± 0.018 U/ml.

Q: And the “Unfractionated Heparin Neutralized” value ([1]; 120 μg/ml Peptide, A Plasma)?
A: The value was 0.618 ± 0.051 U/ml.

Q: And the “Unfractionated Heparin Neutralized” value ([1]; 120 μg/ml Peptide, B Plasma)?
A: The value was 0.512 ± 0.032 U/ml.

Q: And the “Unfractionated Heparin Neutralized” value ([1]; 120 μg/ml Peptide, C Plasma)?
A: The value was 0.580 ± 0.051 U/ml.

Q: What about the “Unfractionated Heparin Neutralized” value ([1]; 120 μg/ml Peptide, Citrate) of the same compound?
A: Its value is 0.530 ± 0.019 U/ml.

Q: And the “Lovenox ® Neutralized” value ([2]; blood of Lovenox-treated Patient Number 1)?
A: Its value is 0.164 U/ml.

Q: What about the “Lovenox ® Neutralized” value ([2]; blood of Lovenox-treated Patient Number 2) of the same compound?
A: Its value is 0.132 U/ml.

Q: And the “Lovenox ® Neutralized” value ([2]; blood of Lovenox-treated Patient Number 3)?
A: Its value is 0.119 U/ml.

Q: What about the “Lovenox ® Neutralized” value ([2]; blood of Lovenox-treated Patient Number 4) of the same compound?
A: The value was 0.337 U/ml.

Q: What about the “Lovenox ® Neutralized” value ([2]; blood of Lovenox-treated Patient Number 5) of the same compound?
A: Its value is 0.230 U/ml.

Q: And the “Lovenox ® Neutralized” value ([2]; blood of Lovenox-treated Patient Number 8)?
A: The value was 0.163 U/ml.

Q: And the “Lovenox ® Neutralized” value ([2]; blood of Lovenox-treated Patient Number 9)?
A: Its value is 0.418 U/ml.

Q: And the “Lovenox ® Neutralized” value ([2]; blood of Lovenox-treated Patient Number 10)?
A: Its value is 0.302 U/ml.

Q: And the “Lovenox ® Neutralized” value ([2]; blood of Lovenox-treated Patient Number 11)?
A: Its value is 0.175 U/ml.

Q: And the “Lovenox ® Neutralized” value ([3]; 1 μg/ml Peptide, A Plasma)?
A: The value was 0.034 ± 0.019 U/ml.

Q: What about the “Lovenox ® Neutralized” value ([3]; 1 μg/ml Peptide, B Plasma) of the same compound?
A: Its value is 0.022 ± 0.009 U/ml.

Q: What about the “Lovenox ® Neutralized” value ([3]; 1 μg/ml Peptide, C Plasma) of the same compound?
A: The value was 0.011 ± 0.005 U/ml.

Q: What about the “Lovenox ® Neutralized” value ([3]; 1 μg/ml Peptide, Citrate) of the same compound?
A: The value was 0.058 ± 0.039 U/ml.

Q: And the “Lovenox ® Neutralized” value ([3]; 6 μg/ml Peptide, A Plasma)?
A: Its value is 0.102 ± 0.012 U/ml.

Q: And the “Lovenox ® Neutralized” value ([3]; 6 μg/ml Peptide, B Plasma)?
A: Its value is 0.126 ± 0.039 U/ml.

Q: And the “Lovenox ® Neutralized” value ([3]; 6 μg/ml Peptide, C Plasma)?
A: The value was 0.092 ± 0.014 U/ml.

Q: And the “Lovenox ® Neutralized” value ([3]; 6 μg/ml Peptide, Citrate)?
A: Its value is 0.245 ± 0.064 U/ml.

Q: What about the “Lovenox ® Neutralized” value ([3]; 12 μg/ml Peptide, A Plasma) of the same compound?
A: The value was 0.213 ± 0.048 U/ml.

Q: What about the “Lovenox ® Neutralized” value ([3]; 12 μg/ml Peptide, B Plasma) of the same compound?
A: Its value is 0.251 ± 0.098 U/ml.

Q: And the “Lovenox ® Neutralized” value ([3]; 12 μg/ml Peptide, C Plasma)?
A: Its value is 0.218 ± 0.047 U/ml.

Q: And the “Lovenox ® Neutralized” value ([3]; 12 μg/ml Peptide, Citrate)?
A: The value was 0.474 ± 0.024 U/ml.

Q: What about the “Lovenox ® Neutralized” value ([3]; 60 μg/ml Peptide, A Plasma) of the same compound?
A: The value was 0.496 ± 0.016 U/ml.

Q: And the “Lovenox ® Neutralized” value ([3]; 60 μg/ml Peptide, B Plasma)?
A: Its value is 0.506 ± 0.012 U/ml.

Q: What about the “Lovenox ® Neutralized” value ([3]; 60 μg/ml Peptide, C Plasma) of the same compound?
A: The value was 0.522 ± 0.009 U/ml.

Q: What about the “Lovenox ® Neutralized” value ([3]; 60 μg/ml Peptide, Citrate) of the same compound?
A: Its value is 0.554 ± 0.023 U/ml.

Q: What about the “Lovenox ® Neutralized” value ([3]; 120 μg/ml Peptide, A Plasma) of the same compound?
A: The value was 0.551 ± 0.031 U/ml.

Q: And the “Lovenox ® Neutralized” value ([3]; 120 μg/ml Peptide, B Plasma)?
A: Its value is 0.538 ± 0.013 U/ml.

Q: What about the “Lovenox ® Neutralized” value ([3]; 120 μg/ml Peptide, C Plasma) of the same compound?
A: Its value is 0.592 ± 0.019 U/ml.

Q: And the “Lovenox ® Neutralized” value ([3]; 120 μg/ml Peptide, Citrate)?
A: The value was 0.525 ± 0.028 U/ml.

Q: And the “anti-LMWH effect in citrate compared with plasma” value ([3]; Table 2A)?
A: The value was “greater anti-LMWH effect in citrate than in plasma”.
